{"source": "patent US11478453B2", "about": "“Treatment for glioblastoma” (HADASIT MEDICAL RESEARCH SERVICES AND DEVELOPMENT LTD., priority 2016, dated 2022)", "key": {"[1]": {"tested_on": "T98G cells", "experiment": "Crystal violet cell viability, T98G glioma cells (single agents and combinations)", "procedure": "(§1) A172 and U87MG cells were cultured in DMEM-Eagle medium supplemented with 4 mmol/L L-glutamine, 100 units/ml penicillin and 100 μg/ml streptomycin, and 10% FBS Charcoal Stripped (Biological Industries, Israel). The T98G cells were cultured in Eagle's minimum essential medium supplemented with 4 mmol/L L-glutamine, 100 units/ml penicillin and 100 μg/ml streptomycin. To avoid the influence of FBS derived steroid hormone on AR, the cell media were supplemented with 10% charcoal/dextran-treated (stripped) FBS (Biological Industries). The cells were maintained in a humidified incubator at 37° C. in 5% CO2.\nThe effect of combination therapies that involve anti-AR signaling agents together with agents that target EGFR on AR modulation was examined in glial tumor cells expressing a ligand independent AR splice variant."}, "[2]": {"tested_on": "A172 cells", "experiment": "Crystal violet cell viability, A172 glioma cells", "type": "cell-based", "procedure": "as §1"}, "[3]": {"tested_on": "U87MG cells", "experiment": "Crystal violet cell viability, U87MG glioma cells", "type": "cell-based, human", "procedure": "as §1"}, "[4]": {"details": "Homo sapiens, 72 h, read-out: Cell viability, percentage of cells treated with vehicle"}, "[5]": {"details": "Homo sapiens, 72 h, read-out: Cell viability, percentage of cells treated with DHT"}}}
{"smiles": "C#Cc1cccc(Nc2ncnc3cc(OCCOC)c(OCCOC)cc23)c1", "note": "[erlotinib]", "values": [{"measurement": "viability at 1.25 µM", "setting": "[1]; [4]", "result": 94, "unit": "%"}, {"measurement": "viability at 10 µM", "setting": "[1]; [4]", "result": 63, "unit": "%"}]}
{"smiles": "C[C@]12CCC(=O)C[C@@H]1CC[C@@H]1[C@@H]2CC[C@]2(C)[C@@H](O)CC[C@@H]12", "note": "[DHT, 5α-dihydrotestosterone]", "values": [{"measurement": "Effect of DHT on cell viability versus vehicle", "setting": "[2]; A172, 10 μM DHT, vehicle 0.15% ETOH", "result": "no effect on cell viability"}, {"measurement": "Effect of DHT on cell viability versus vehicle", "setting": "[3]; 10 μM DHT, vehicle 0.15% ETOH", "result": "no effect on cell viability"}, {"measurement": "Effect of DHT on cell viability versus vehicle", "setting": "[1]; 10 μM DHT, vehicle 0.15% ETOH", "result": "no effect on cell viability"}]}
{"smiles": "CN(C)C/C=C/C(=O)Nc1cc2c(Nc3ccc(F)c(Cl)c3)ncnc2cc1O[C@H]1CCOC1", "note": "[afatinib]", "values": [{"measurement": "viability at 1.25 µM", "setting": "[1]; [4]", "result": 92, "unit": "%"}, {"measurement": "viability at 5 µM", "setting": "[1]; [4]", "result": 47, "unit": "%"}]}
{"smiles": "CC(O)(CS(=O)(=O)c1ccc(F)cc1)C(=O)Nc1ccc(C#N)c(C(F)(F)F)c1", "note": "(stereo not shown) [bicalutamide]", "values": [{"measurement": "viability at 20 µM", "setting": "[2]; Homo sapiens, A 172, A172, 20 uM, 72 hrs, with 10 μM DHT, read-out: Cell viability, percentage of cells treated with DHT", "result": 90, "unit": "%"}, {"measurement": "viability at 80 µM", "setting": "[2]; Homo sapiens, A 172, A172, 80 uM, 72 hrs, with 10 μM DHT, read-out: Cell viability, percentage of cells treated with DHT", "result": 43, "unit": "%"}, {"measurement": "viability at 20 µM", "setting": "[3]; Homo sapiens, U-87 MG, 20 uM, 72 hrs, with 10 μM DHT, read-out: Cell viability, percentage of cells treated with DHT", "result": 83, "unit": "%"}, {"measurement": "viability at 80 µM", "setting": "[3]; Homo sapiens, U-87 MG, 80 uM, 72 hrs, with 10 μM DHT, read-out: Cell viability, percentage of cells treated with DHT", "result": 31, "unit": "%"}, {"measurement": "viability at 20 µM", "setting": "[1]; [5]", "result": 90, "unit": "%"}, {"measurement": "viability at 80 µM", "setting": "[1]; [5]", "result": 59, "unit": "%"}]}
